Laboratory results published in patent publication US6756359B2, “C12 modified erythromycin macrolides and ketolides having antibacterial activity” (Chiron Corporation, priority 2001, dated 2004).
Values after ≈ are worked out from the molar mass of the structure shown.

What was measured:
Assay in all cases: Antibacterial activity in vitro, MIC by broth microdilution
[1] = tested on: S. pneumoniae Stpn_Mef 5654; format: cell-based, Streptococcus pneumoniae; conditions: Table 5, Strain ID K: S. pneumoniae Stpn_Mef 5654; unit assumed
Experimental: (§1) Representative compounds of the present invention were assayed in vitro for antibacterial activity against the bacterial isolates listed in Table 1 as follows:
(§2) The bacterial isolates listed in Table 1 were cultivated from −70° C. frozen stocks by two consecutive overnight passages (P1, P2) at 35° C. on 5% blood agar (Remel, Lenexa, Kans.). Chocolate agar (Remel) is used for Haemophilus influenzae. H. influenzae and Streptococcus pneumoniae are incubated in 5-10% CO2.
(§3) To determine the amount of solvent to be used to give the desired final concentration, the formula “weight obtained in mg/final concentration in mg/mL” will be used. It will give the amount of solvent in mL needed to be added to give the desired concentration. For example, if 2.5 mg/mL is the desired concentration and the weight of compound is 13.7 mg, then the amount of solvent to be added is 3.94 mL (13.7 mg/2.5 mg/mL=3.94 mLs). Methanol is used as the solvent to dissolve the test compounds. Further dilution of stock is done in sterile, deioinzed water. Drug stocks are kept frozen at −70° C., protected from light.
(§4) MICs are determined by the broth microdilution method in accordance with the NCCLS guidelines. In brief, organism suspensions are adjusted to a 0.5 McFarland standard to yield a final inoculum between 3×10^5 and 7×10^5 CFU/mL. Drug dilutions and inocula are made in sterile, cation adjusted Mueller-Hinton Broth (CAMHB) (Remel) for all but S. pneumoniae [CAMHB with 2-5% lysed horse blood (Remel)] and H. influenzae [Haemophilus Test Medium (Remel)]. An inoculum volume of 100 μl is added to wells containing 100 μl of broth with 2-fold serial dilutions of drug. All inoculated microdilution trays are incubated in ambient air at 35° C. for 18-24 hours, except for S. pneumoniae, and H. influenzae (both at 5-10% CO2).
(§5) Following appropriate incubation, the MIC is determined and the MIC is defined as the lowest concentration of the drug that prevented visible growth.

[2] = tested on: S. pneumoniae Stpn_297-749 Pen R; format: cell-based, Streptococcus pneumoniae; conditions: Table 5, Strain ID G: S. pneumoniae Stpn_297-749
Experimental: as §1, §2, §3, §4, §5

[3] = tested on: S. pneumoniae Stpn_Erm S 4297; format: cell-based, Streptococcus pneumoniae; conditions: Table 5, Strain ID J: S. pneumoniae Stpn_Erm S 4297
Experimental: as §1, §2, §3, §4, §5

[4] = tested on: S. pneumoniae Stpn_Mef S 3427; format: cell-based, Streptococcus pneumoniae; conditions: Table 5, Strain ID L: S. pneumoniae Stpn_Mef S 3427; unit assumed
Experimental: as §1, §2, §3, §4, §5

[5] = tested on: S. pneumoniae Stpn_280-962 Pen S; format: cell-based, Streptococcus pneumoniae; conditions: Table 5, Strain ID H: S. pneumoniae Stpn_280-962
Experimental: as §1, §2, §3, §4, §5

[6] = tested on: S. pneumoniae Stpn_Erm 6849; format: cell-based, Streptococcus pneumoniae; conditions: Table 5, Strain ID I: S. pneumoniae Stpn_Erm 6849
Experimental: as §1, §2, §3, §4, §5

S. pneumoniae Stpn_49619 = format: cell-based, Streptococcus pneumoniae; conditions: Table 5, Strain ID F: S. pneumoniae Stpn_49619
Experimental: as §1, §2, §3, §4, §5

H. influenzae Hain_49247 = format: cell-based, Haemophilus influenzae; conditions: Table 5, Strain ID M: H. influenzae Hain_49247; unit assumed
Experimental: as §1, §2, §3, §4, §5

E. faecalis Enfa_29212 = format: cell-based; conditions: Table 5, Strain ID D: E. faecalis Enfa_29212; unit assumed
Experimental: as §1, §2, §3, §4, §5

[7] = tested on: S. epidermidis Step_f50654 Pen S; format: cell-based; conditions: Table 5, Strain ID C: S. epidermidis Step_f50654; unit assumed
Experimental: as §1, §2, §3, §4, §5

S. aureus Stau_29213 = format: cell-based; conditions: Table 5, Strain ID A: S. aureus Stau_29213; unit assumed
Experimental: as §1, §2, §3, §4, §5

[8] = tested on: S. epidermidis Step_14990; format: cell-based; conditions: Table 5, Strain ID B: S. epidermidis Step_14990; unit assumed
Experimental: as §1, §2, §3, §4, §5

S. pyogenes Stpy_8668 = format: cell-based; conditions: Table 5, Strain ID E: S. pyogenes Stpy_8668
Experimental: as §1, §2, §3, §4, §5

Structure (SMILES) | MIC [1] | MIC [2] | MIC ([3]; unit assumed) | MIC [4] | MIC [5] | MIC ([6]; unit assumed) | MIC (S. pneumoniae Stpn_49619) | MIC (H. influenzae Hain_49247) | MIC (E. faecalis Enfa_29212) | MIC [7] | MIC (S. aureus Stau_29213) | MIC [8] | MIC (S. pyogenes Stpy_8668) | MIC [3] | MIC (S. pyogenes Stpy_8668; unit assumed) | MIC [6] | MIC (S. pneumoniae Stpn_49619; unit assumed)
CC[C@H]1OC(=O)[C@H](C)C(=O)[C@H](C)[C@@H](OC2O[C@H](C)C[C@H](N(C)C)[C@H]2O)[C@@](C)(OC)C[C@@H](C)C(=O)[C@H](C)[C@H]2N(CCCCn3cnc(-c4ccc(C)nc4)c3)C(=O)O[C@]12CC (stereo partly drawn) [Example 29, (3aS,4R,7R,9R,10R,11S,13R,15R,15aR)-3a,4-diethyl-11-methoxy-7,9,11,13,15-pentamethyl-1-{4-[4-(6-methylpyridin-3-yl)-1H-imidazol-1-yl]butyl}-2,6,8,14-tetraoxotetradecahydro-2H-oxacyclotetradecino[4,3-d][1,3]oxazol-10-yl 3,4,6-trideoxy-3-(dimethylamino)-D-xylo-hexopyranoside] | 0.78 µg/mL (≈ 0.928 µM) | ≦0.05 | 0.2 µg/mL (≈ 0.238 µM) | 0.2 µg/mL (≈ 0.238 µM) | ≦0.05 | 1.56 µg/mL (≈ 1.86 µM) | ≦0.05 | 6.25 µg/mL (≈ 7.44 µM) | 0.2 µg/mL (≈ 0.238 µM) | 0.4 µg/mL (≈ 0.476 µM) | 0.4 µg/mL (≈ 0.476 µM) | 0.2 µg/mL (≈ 0.238 µM) | ≦0.05 |  |  |  | 
CC[C@H]1OC(=O)[C@@](C)(F)C(=O)[C@H](C)[C@@H](OC2O[C@H](C)C[C@H](N(C)C)[C@H]2O)[C@@](C)(OC)C[C@@H](C)C(=O)[C@H](C)[C@H]2N(CCCCn3cnc(-c4ccc(C)nc4)c3)C(=O)O[C@]12CC (stereo partly drawn) [Example 30, (3aS,4R,7S,9R,10R,11S,13R,15R,15aR)-3a,4-diethyl-7-fluoro-11-methoxy-7,9,11,13,15-pentamethyl-1-{4-[4-(6-methylpyridin-3-yl)-1H-imidazol-1-yl]butyl}-2,6,8,14-tetraoxotetradecahydro-2H-oxacyclotetradecino[4,3-d][1,3]oxazol-10-yl 3,4,6-trideoxy-3-(dimethylamino)-D-xylo-hexopyranoside] | 0.78 µg/mL (≈ 0.909 µM) | ≦0.05 | 0.1 µg/mL (≈ 0.117 µM) | 0.1 µg/mL (≈ 0.117 µM) | ≦0.05 | 0.4 µg/mL (≈ 0.466 µM) | ≦0.05 | 6.25 µg/mL (≈ 7.28 µM) | 0.2 µg/mL (≈ 0.233 µM) | 0.4 µg/mL (≈ 0.466 µM) | 0.2 µg/mL (≈ 0.233 µM) | 0.2 µg/mL (≈ 0.233 µM) | ≦0.05 |  |  |  | 
CC[C@H]1OC(=O)[C@H](C)C(=O)[C@H](C)[C@@H](OC2O[C@H](C)C[C@H](N(C)C)[C@H]2O)[C@@](C)(OC)C[C@@H](C)C(=O)[C@H](C)[C@H]2N(CCCCn3cnc(-c4ccc(F)nc4)c3)C(=O)O[C@]12CC (stereo partly drawn) [Example 33, (3aS,4R,7R,9R,10R,11S,13R,15R,15aR)-3a,4-diethyl-1-{4-[4-(6-fluoropyridin-3-yl)-1H-imidazol-1-yl]butyl}-11-methoxy-7,9,11,13,15-pentamethyl-2,6,8,14-tetraoxotetradecahydro-2H-oxacyclotetradecino[4,3-d][1,3]oxazol-10-yl 3,4,6-trideoxy-3-(dimethylamino)-D-xylo-hexopyranoside] | 0.1 µg/mL (≈ 0.118 µM) | ≦0.05 | 0.4 µg/mL (≈ 0.474 µM) | 0.4 µg/mL (≈ 0.474 µM) | ≦0.05 |  |  | 0.1 µg/mL (≈ 0.118 µM) | 0.1 µg/mL (≈ 0.118 µM) | 0.2 µg/mL (≈ 0.237 µM) | 0.4 µg/mL (≈ 0.474 µM) | 0.2 µg/mL (≈ 0.237 µM) | ≦0.05 |  |  | ≦0.05 | 3.13 µg/mL (≈ 3.71 µM)
CC[C@H]1OC(=O)[C@H](C)C(=O)[C@H](C)[C@@H](OC2O[C@H](C)C[C@H](N(C)C)[C@H]2O)[C@@](C)(OC)C[C@@H](C)C(=O)[C@H](C)[C@H]2N(CCCCc3ncc(-c4cccc(N)c4)s3)C(=O)O[C@]12CC (stereo partly drawn) [Example 34, (3aS,4R,7R,9R,10R,11S,13R,15R,15aR)-1-{4-[5-(3-aminophenyl)-1,3-thiazol-2-yl]butyl}-3a,4-diethyl-11-methoxy-7,9,11,13,15-pentamethyl-2,6,8,14-tetraoxotetradecahydro-2H-oxacyclotetradecino[4,3-d][1,3]oxazol-10-yl 3,4,6-trideoxy-3-(dimethylamino)-D-xylo-hexopyranoside] | 0.2 µg/mL (≈ 0.233 µM) | ≦0.05 | 12.5 µg/mL (≈ 14.6 µM) | 0.4 µg/mL (≈ 0.467 µM) | ≦0.05 |  |  | 0.1 µg/mL (≈ 0.117 µM) | 0.1 µg/mL (≈ 0.117 µM) | 0.2 µg/mL (≈ 0.233 µM) | 0.4 µg/mL (≈ 0.467 µM) | 0.2 µg/mL (≈ 0.233 µM) | ≦0.05 |  |  | ≦0.05 | 3.13 µg/mL (≈ 3.65 µM)

Now from value to compound, other results behind:

MIC [1] | MIC [2] | MIC ([3]; unit assumed) | MIC [4] | MIC [5] | MIC ([6]; unit assumed) | MIC (S. pneumoniae Stpn_49619) | MIC (H. influenzae Hain_49247) | MIC (E. faecalis Enfa_29212) | MIC [7] | MIC (S. aureus Stau_29213) | MIC [8] | MIC (S. pyogenes Stpy_8668) | MIC [3] | MIC (S. pyogenes Stpy_8668; unit assumed) | Structure (SMILES) | MIC [6] | MIC (S. pneumoniae Stpn_49619; unit assumed)
0.78 µg/mL (≈ 0.913 µM) | ≦0.05 | 0.2 µg/mL (≈ 0.234 µM) | 0.2 µg/mL (≈ 0.234 µM) | ≦0.05 | 0.4 µg/mL (≈ 0.468 µM) | ≦0.05 | 6.25 µg/mL (≈ 7.32 µM) | 0.2 µg/mL (≈ 0.234 µM) | 0.4 µg/mL (≈ 0.468 µM) | 0.2 µg/mL (≈ 0.234 µM) | 0.4 µg/mL (≈ 0.468 µM) | ≦0.05 |  |  | CC[C@H]1OC(=O)[C@H](C)C(=O)[C@H](C)[C@@H](OC2O[C@H](C)C[C@H](N(C)C)[C@H]2O)[C@@](C)(OC)C[C@@H](C)C(=O)[C@H](C)[C@H]2N(CCCC(C)(C)n3cnc(-c4cccnc4)c3)C(=O)O[C@]12CC (stereo partly drawn) [Example 31, (3aS,4R,7R,9R,10R,11S,13R,15R,15aR)-3a,4-diethyl-11-methoxy-7,9,11,13,15-pentamethyl-1-[4-methyl-4-(4-pyridin-3-yl-1H-imidazol-1-yl)pentyl]-2,6,8,14-tetraoxotetradecahydro-2H-oxacyclotetradecino[4,3-d][1,3]oxazol-10-yl 3,4,6-trideoxy-3-(dimethylamino)-D-xylo-hexopyranoside] |  | 
0.78 µg/mL (≈ 0.894 µM) | ≦0.05 |  | 0.2 µg/mL (≈ 0.229 µM) | ≦0.05 | 0.2 µg/mL (≈ 0.229 µM) | ≦0.05 | 6.25 µg/mL (≈ 7.17 µM) | 0.02 µg/mL (≈ 0.0229 µM) | 0.4 µg/mL (≈ 0.459 µM) | 0.2 µg/mL (≈ 0.229 µM) | 0.4 µg/mL (≈ 0.459 µM) | ≦0.05 | ≦0.05 |  | CC[C@H]1OC(=O)[C@@](C)(F)C(=O)[C@H](C)[C@@H](OC2O[C@H](C)C[C@H](N(C)C)[C@H]2O)[C@@](C)(OC)C[C@@H](C)C(=O)[C@H](C)[C@H]2N(CCCC(C)(C)n3cnc(-c4cccnc4)c3)C(=O)O[C@]12CC (stereo partly drawn) [Example 32, (3aS,4R,7S,9R,10R,11S,13R,15R,15aR)-3a,4-diethyl-7-fluoro-11-methoxy-7,9,11,13,15-pentamethyl-1-[4-methyl-4-(4-pyridin-3-yl-1H-imidazol-1-yl)pentyl]-2,6,8,14-tetraoxotetradecahydro-2H-oxacyclotetradecino [4,3-d][1,3]oxazol-10-yl 3,4,6-trideoxy-3-(dimethylamino)-D-xylo-hexopyranoside] |  | 
0.78 µg/mL (≈ 0.931 µM) | ≦0.05 | 3.13 µg/mL (≈ 3.73 µM) | 0.78 µg/mL (≈ 0.931 µM) | ≦0.05 |  |  | 0.2 µg/mL (≈ 0.239 µM) | 0.2 µg/mL (≈ 0.239 µM) | 0.78 µg/mL (≈ 0.931 µM) | 0.78 µg/mL (≈ 0.931 µM) | 0.78 µg/mL (≈ 0.931 µM) |  |  | 0.2 µg/mL (≈ 0.239 µM) | CC[C@H]1OC(=O)[C@H](C)C(=O)[C@H](C)[C@@H](OC2O[C@H](C)C[C@H](N(C)C)[C@H]2O)[C@@](C)(OC)C[C@@H](C)C(=O)[C@H](C)[C@H]2N(CCCOc3cccc(-c4cccnc4)c3)C(=O)O[C@]12CC (stereo partly drawn) [Example 35, (3aS,4R,7R,9R,10R,11S,13R,15R,15aR)-3a,4-diethyl-11-methoxy-7,9,11,13,15-pentamethyl-2,6,8,14-tetraoxo-1-[3-(3-pyridin-3-ylphenoxy)propyl]-tetradecahydro-2H-oxacyclotetradecino[4,3-d][1,3]oxazol-10-yl 3,4,6-trideoxy-3-(dimethylamino)-D-xylo-hexopyranoside] | ≦0.05 | 6.25 µg/mL (≈ 7.46 µM)
